Measurements published in patent US20170311602A1, “METHODS AND COMPOSITIONS FOR THE CONTROL OF FUNGAL PATHOGENS IN CROP PLANTS” (Monsanto Technology LLC, priority 2014, published 2017).

Assays:
Format in all cases: in vivo
[1] = tested on: Colletotrichum graminicola; assay: Field trial, Anthracnose stalk rot disease severity after stalk wounding and inoculation; settings: 60 g ai/100 kg seed; Acceleron 2013 base; N=3 locations; control (surface wounding) 2.9
Protocol: Field trials were conducted to evaluate seed treatments for efficacy and yield. Field plots contained a single row or up to 4 rows by 20-40 feet. Smallest plot size was a single row by 20 feet. Four replications were typically used. The hybrids selected for the study were typically moderately susceptible to Anthracnose stalk rot, which indicates a susceptibility rating of at least 5-6 on a 9 point scale (1=highly resistant, 9=highly susceptible). […] The typical growth stage for field inoculation was […]). For disease ratings, stalks were surface wounded using implements with needles that either provided shallow scratches on the surface of the stalk ( 1 cm depth) or shallow piercing wounds ( 1 cm depth). Concurrent with surface wounding, a spore suspension of Colletotrichum graminicola (C. graminicola) conidia is sprayed onto wounded area or injected into shallow wounds. The total volume of spore suspension applied was in the range of 1-5 mL. […] Disease development was monitored in control treatments and disease evaluations were usually targeted when disease index rating reached approximately 5 on a 1-9 scale in control treatments. […] 10 stalks were assessed per plot. […] The stalks were split and the number of internodes with disease symptoms was counted starting at the internode above top node with brace roots (disease incidence rating). […]

[2] = tested on: Colletotrichum graminicola; assay: Field yield trial, seed treatments in inoculated soil plots; settings: Acceleron 2013 base, N=10 locations, control 164.4
Protocol: (§1) Field trials were conducted to evaluate seed treatments for efficacy and yield. Field plots contained a single row or up to 4 rows by 20-40 feet. Smallest plot size was a single row by 20 feet. Four replications were typically used. The hybrids selected for the study were typically moderately susceptible to Anthracnose stalk rot, which indicates a susceptibility rating of at least 5-6 on a 9 point scale (1=highly resistant, 9=highly susceptible).
(§2) The typical growth stage for field inoculation was VT/R1 (tasseling/silking). For disease ratings, stalks were surface wounded using implements with needles that either provided shallow scratches on the surface of the stalk (˜1 cm depth) or shallow piercing wounds (˜1 cm depth). Concurrent with surface wounding, a spore suspension of Colletotrichum graminicola (C. graminicola) conidia is sprayed onto wounded area or injected into shallow wounds. The total volume of spore suspension applied was in the range of 1-5 mL. Yield trials were soil inoculated or non-inoculated (natural pressure). For soil inoculation the fungus was grown on sorghum seed and the infested sorghum seed was placed in furrow at planting of the trials.
(§3) Yield was determined in the following manner. The center two rows of the plot were harvested or both rows if it was a two row plot. The weight and percent moisture were recorded for each plot grain sample. The recorded plot weight and % moisture were converted to standardized weight using standard moisture of 15.5%. Each plot was normalized to kg/ha by interpolating plot yield area to hectares. Yield in bushels/acre (bu/A) was determined by interpolating plot yield area to acre and conversion to bu/A using a standard corn bushel weight of 56 lb.
All seeds, including control, were treated with Acceleron 2013 commercial seed treatment (disease control+insect control) as a base. N=10 locations.

corn = assay: Field yield trials, seed treatments in non-inoculated soil plots (natural pressure); settings: Acceleron 2013 base; for Yield Trial 1: N=22 locations, control 174.9; for Yield Trial 2: N=24 locations, control 174.4
Protocol: as §1, §2, §3
All seeds, including control, were treated with Acceleron 2013 commercial seed treatment (disease+insect control) as a base. N=22 locations.
All seeds, including control, were treated with Acceleron 2013 commercial seed treatment (disease+insect control) as a base. N=24 locations.

Fusarium verticillioides = assay: Tray seedling test, efficacy of seed treatment against Fusarium verticillioides; settings: FS100, 30 g ai/100 kg seeds; untreated (% damage) 26%
Protocol: (§4) The seed tested (Amadeo harvest 2008, TKW 331,3) was seeded in trays 20×20×6 cm, with 9 holes for water release in field soil/quartz sand mix (1:1). Two repetitions with 25 kernels each were treated using standard seed treatment techniques. Each tray contained a single isolate of either Fusarium verticillioides G679, Fusarium verticillioides S039/07, Fusarium verticillioides S149/08, Colletotrichum graminicola BF0911 or Colletotrichum graminicola CG-1. The fungi were grown on sterile wheat grains. Thereafter, wheat grains were roughly ground after incubation and dried. For inoculation, either 5 or 15 ml of inoculum were scattered between the seeds at sowing, followed by incubation for 7 days at 10° C., followed by 7 days 24° C./15° C. (day/night period). Plants were evaluated for a) initial emergence (number of plants), b) final emergence (number of plants), c) disease level. Seedlings were classified in 3 categories: low, moderate or sevre necrosis. The disease score was calculated as follows: […]

[3] = tested on: corn stalk rot susceptible hybrids; assay: Greenhouse seedling emergence trial for seed safety of treated corn seed; settings: number of plants emerged at day 7, five plants per pot
Protocol: Seeds treated with chemistry were evaluated for seed safety in greenhouse emergence trials. Seed treatment active ingredients were combined in a slurry mix with colorant, polymer, and water at the recommended rates and allowed to mix thoroughly. Using a Gustafson BMC lab treater the seed batch was deposited in the BMC coater and treatment slurry was injected and allowed to tumble for 35-40 seconds before being ejected into a bulk collection bin and transferred to a paper storage bag. Standard corn stalk rot susceptible hybrids were planted using six pot replicates of five plants per pot. The treatments were randomized in RCBD, blocked by GH watering trays. Planting media consisted of 3.5 inch pots with the following media: US10 soil and 50/50 mix of US10/REDIEARTH. Replicates were placed perpendicular to the greenhouse temperature gradient.
Initial daily emergence counts at spike emergence of first treatment, continued until emergence was complete in untreated control (7-10 days after planting). The final stand was calculated as the number of plants emerged at day 7. The stand AUC was calculated as the area under the emergence curve.

[4] = tested on: Colletotrichum graminicola; assay: Tray seedling test, efficacy of seed treatment against Colletotrichum graminicola; settings: FS100, 30 g ai/100 kg seeds; untreated (% damage) 22%
Protocol: as §4

CO/N=C(/C1=NOCCO1)c1ccccc1Oc1ncnc(Oc2ccccc2Cl)c1F [Fluoxastrobin, fluoxastrobin]
Disease Severity (nodes ≧50% necrosis) [1]: 1.5 nodes ≧50% necrosis
Yield ([2]; 30 g/100 Kg seed): 169.4 bu/A
Yield ([2]; 60 g/100 Kg seed): 172 bu/A
Yield ([2]; 90 g/100 Kg seed): 171.8 bu/A
Yield Trial 1 (corn; 30 g/100 Kg seed): 175.9 Bu/acre
Yield Trial 2 (corn; 30 g/100 Kg seed): 175.9 Bu/acre
Yield Trial 1 (corn; 60 g/100 Kg seed): 179.1 Bu/acre
Yield Trial 2 (corn; 60 g/100 Kg seed): 177.6 Bu/acre
Yield Trial 2 (corn; 90 g/100 Kg seed): 176.3 Bu/acre
Efficacy against Fusarium verticillioides (av. of 3 isolates) (Fusarium verticillioides): 3 % Abbott
Final Stand ([3]; 25 g ai/100 kg seed): 4.79
Final Stand ([3]; 50 g ai/100 kg seed): 4.67
Final Stand ([3]; 100 g ai/100 kg seed): 4.63
Final Stand ([3]; 200 g ai/100 kg seed): 4.83
Final Stand ([3]; 300 g ai/100 kg seed): 4.58
Final Stand ([3]; 400 g ai/100 kg seed): 4.99
Efficacy against Colletotrichum graminicola (av. 2 isolates) [4]: 88 % Abbott

OC(Cc1ccccc1Cl)(Cn1nc[nH]c1=S)C1(Cl)CC1 (centres unmarked) [Prothioconazole, prothioconazole]
Disease Severity (nodes ≧50% necrosis) [1]: 1.6 nodes ≧50% necrosis
Yield ([2]; 30 g/100 Kg seed): 172.4 bu/A
Yield ([2]; 60 g/100 Kg seed): 173.6 bu/A
Yield ([2]; 90 g/100 Kg seed): 174 bu/A
Yield Trial 1 (corn; 30 g/100 Kg seed): 177.1 Bu/acre
Yield Trial 2 (corn; 30 g/100 Kg seed): 176.6 Bu/acre
Yield Trial 1 (corn; 60 g/100 Kg seed): 178.6 Bu/acre
Yield Trial 2 (corn; 60 g/100 Kg seed): 178.3 Bu/acre
Yield Trial 2 (corn; 90 g/100 Kg seed): 175.2 Bu/acre
Efficacy against Fusarium verticillioides (av. of 3 isolates) (Fusarium verticillioides): 47 % Abbott
Final Stand ([3]; 25 g ai/100 kg seed): 4.88
Final Stand ([3]; 50 g ai/100 kg seed): 4.75
Final Stand ([3]; 100 g ai/100 kg seed): 4.58
Final Stand ([3]; 200 g ai/100 kg seed): 4.92
Efficacy against Colletotrichum graminicola (av. 2 isolates) [4]: 51 % Abbott
